Reference: ChEMBL document CHEMBL4011590, “Structure-activity relationship studies on 3,5-dinitrophenyl tetrazoles as antitubercular agents” (Eur J Med Chem, 2017)
In brackets after ≈: the same amount, converted by molar mass.

Legend:
[1] = tested on: Klebsiella pneumoniae; experiment: Antibacterial activity against extended spectrum beta-lactamase producing Klebsiella pneumoniae HK14368/08 after 48 hrs by broth microdilution method; assay type: functional; conditions: HK14368/08, 48 h
[2] = tested on: Trichosporon asahii; experiment: Antifungal activity against Trichosporon asahii 1188 after 48 hrs by broth microdilution method; assay type: functional; conditions: Trichosporon asahii, 1188, 48 h
[3] = tested on: Nakaseomyces glabratus; experiment: Antifungal activity against Candida glabrata 20/I after 48 hrs by broth microdilution method; assay type: functional
[4] = tested on: Staphylococcus aureus; experiment: Antibacterial activity against Staphylococcus aureus ATCC 6538 after 24 hrs by broth microdilution method; assay type: functional; conditions: ATCC 6538, 24 h
[5] = tested on: CHO-K1; experiment: Cytotoxicity against CHOK1 cells after 24 hrs by MTT assay; assay type: cell-based; conditions: Cricetulus griseus, CHO-K1, 24 h
[6] = tested on: Mycobacterium kansasii; experiment: Antimycobacterial activity against Mycobacterium kansasii isolate 6509/96 after 21 days by micromethod; assay type: functional; conditions: isolate 6509/96, 504 h
[7] = tested on: Klebsiella pneumoniae; experiment: Antibacterial activity against extended spectrum beta-lactamase producing Klebsiella pneumoniae HK14368/08 after 24 hrs by broth microdilution method; assay type: functional; conditions: HK14368/08, 24 h
[8] = tested on: Enterococcus sp.; experiment: Antibacterial activity against Enterococcus sp. HK14365/08 after 48 hrs by broth microdilution method; assay type: functional; conditions: HK14365/08, 48 h
[9] = tested on: Mycobacterium kansasii; experiment: Antimycobacterial activity against Mycobacterium kansasii CNCTC My 235/80 after 21 days by micromethod; assay type: functional; conditions: CNCTC My 235/80, 504 h
[10] = tested on: Pseudomonas aeruginosa; experiment: Antibacterial activity against Pseudomonas aeruginosa ATCC 9027 after 24 hrs by broth microdilution method; assay type: functional; conditions: ATCC 9027, 24 h
[11] = tested on: Pichia kudriavzevii; experiment: Antifungal activity against Candida krusei E28 after 48 hrs by broth microdilution method; assay type: functional; conditions: E28, 48 h
[12] = tested on: Escherichia coli; experiment: Antibacterial activity against Escherichia coli ATCC 8739 after 48 hrs by broth microdilution method; assay type: functional; conditions: ATCC 8739, 48 h
[13] = tested on: Staphylococcus epidermidis; experiment: Antibacterial activity against Staphylococcus epidermidis HK6966/08 after 24 hrs by broth microdilution method; assay type: functional; conditions: HK6966/08, 24 h
[14] = tested on: Escherichia coli; experiment: Antibacterial activity against Escherichia coli ATCC 8739 after 24 hrs by broth microdilution method; assay type: functional; conditions: ATCC 8739, 24 h
[15] = tested on: Mycobacterium tuberculosis; experiment: Antimycobacterial activity against Mycobacterium tuberculosis H37Rv CNCTC My 331/88 after 14 days by micromethod; assay type: functional; conditions: H37Rv CNCTC My 331/88, 336 h
[16] = tested on: Trichophyton mentagrophytes; experiment: Antifungal activity against Trichophyton mentagrophytes 445 after 120 hrs by broth microdilution method; assay type: functional; conditions: Trichophyton mentagrophytes, 445, 120 h
[17] = tested on: Staphylococcus aureus; experiment: Antibacterial activity against methicillin-resistant Staphylococcus aureus HK5996/08 after 48 hrs by broth microdilution method; assay type: functional; conditions: HK5996/08, 48 h
[18] = tested on: Mycobacterium kansasii; experiment: Antimycobacterial activity against Mycobacterium kansasii isolate 6509/96 after 7 days by micromethod; assay type: functional; conditions: isolate 6509/96, 168 h
[19] = tested on: Mycobacterium avium; experiment: Antimycobacterial activity against Mycobacterium avium CNCTC My 330/80 after 21 days by micromethod; assay type: functional; conditions: CNCTC My 330/80, 504 h
[20] = tested on: Klebsiella pneumoniae; experiment: Antibacterial activity against Klebsiella pneumoniae HK11750/08 after 24 hrs by broth microdilution method; assay type: functional; conditions: HK11750/08, 24 h
[21] = tested on: Staphylococcus epidermidis; experiment: Antibacterial activity against Staphylococcus epidermidis HK6966/08 after 48 hrs by broth microdilution method; assay type: functional; conditions: HK6966/08, 48 h
[22] = tested on: Mycobacterium tuberculosis; experiment: Antimycobacterial activity against Mycobacterium tuberculosis H37Rv CNCTC My 331/88 after 21 days by micromethod; assay type: functional; conditions: H37Rv CNCTC My 331/88, 504 h
[23] = tested on: Lichtheimia corymbifera; experiment: Antifungal activity against Absidia corymbifera 272 after 48 hrs by broth microdilution method; assay type: functional; conditions: Lichtheimia corymbifera, 272, 48 h
[24] = tested on: Trichosporon asahii; experiment: Antifungal activity against Trichosporon asahii 1188 after 24 hrs by broth microdilution method; assay type: functional; conditions: Trichosporon asahii, 1188, 24 h
[25] = tested on: Aspergillus fumigatus; experiment: Antifungal activity against Aspergillus fumigatus 231 after 24 hrs by broth microdilution method; assay type: functional; conditions: Aspergillus fumigatus, 231, 24 h
[26] = tested on: Pseudomonas aeruginosa; experiment: Antibacterial activity against Pseudomonas aeruginosa ATCC 9027 after 48 hrs by broth microdilution method; assay type: functional; conditions: ATCC 9027, 48 h
[27] = tested on: Nakaseomyces glabratus; experiment: Antifungal activity against Candida glabrata 20/I after 24 hrs by broth microdilution method; assay type: functional
[28] = tested on: Mycobacterium kansasii; experiment: Antimycobacterial activity against Mycobacterium kansasii CNCTC My 235/80 after 7 days by micromethod; assay type: functional; conditions: CNCTC My 235/80, 168 h
[29] = tested on: Candida albicans; experiment: Antifungal activity against Candida albicans ATCC 44859 after 48 hrs by broth microdilution method; assay type: functional; conditions: ATCC 44859, 48 h
[30] = tested on: Aspergillus fumigatus; experiment: Antifungal activity against Aspergillus fumigatus 231 after 48 hrs by broth microdilution method; assay type: functional; conditions: Aspergillus fumigatus, 231, 48 h
[31] = tested on: Mycobacterium kansasii; experiment: Antimycobacterial activity against Mycobacterium kansasii CNCTC My 235/80 after 14 days by micromethod; assay type: functional; conditions: CNCTC My 235/80, 336 h
[32] = tested on: Trichophyton mentagrophytes; experiment: Antifungal activity against Trichophyton mentagrophytes 445 after 72 hrs by broth microdilution method; assay type: functional; conditions: Trichophyton mentagrophytes, 445, 72 h
[33] = tested on: Staphylococcus aureus; experiment: Antibacterial activity against Staphylococcus aureus ATCC 6538 after 48 hrs by broth microdilution method; assay type: functional; conditions: ATCC 6538, 48 h
[34] = tested on: Mycobacterium avium; experiment: Antimycobacterial activity against Mycobacterium avium CNCTC My 330/80 after 14 days by micromethod; assay type: functional; conditions: CNCTC My 330/80, 336 h
[35] = tested on: Lichtheimia corymbifera; experiment: Antifungal activity against Absidia corymbifera 272 after 24 hrs by broth microdilution method; assay type: functional; conditions: Lichtheimia corymbifera, 272, 24 h
[36] = tested on: Candida tropicalis; experiment: Antifungal activity against Candida tropicalis 156 after 48 hrs by broth microdilution method; assay type: functional; conditions: Candida tropicalis, 156, 48 h
[37] = tested on: Mycobacterium kansasii; experiment: Antimycobacterial activity against Mycobacterium kansasii isolate 6509/96 after 14 days by micromethod; assay type: functional; conditions: isolate 6509/96, 336 h
[38] = tested on: Candida albicans; experiment: Antifungal activity against Candida albicans ATCC 44859 after 24 hrs by broth microdilution method; assay type: functional; conditions: ATCC 44859, 24 h
[39] = tested on: Enterococcus sp.; experiment: Antibacterial activity against Enterococcus sp. HK14365/08 after 24 hrs by broth microdilution method; assay type: functional; conditions: HK14365/08, 24 h
[40] = tested on: Candida tropicalis; experiment: Antifungal activity against Candida tropicalis 156 after 24 hrs by broth microdilution method; assay type: functional; conditions: Candida tropicalis, 156, 24 h
[41] = tested on: Klebsiella pneumoniae; experiment: Antibacterial activity against Klebsiella pneumoniae HK11750/08 after 48 hrs by broth microdilution method; assay type: functional; conditions: HK11750/08, 48 h
[42] = tested on: Pichia kudriavzevii; experiment: Antifungal activity against Candida krusei E28 after 24 hrs by broth microdilution method; assay type: functional; conditions: E28, 24 h
[43] = tested on: Staphylococcus aureus; experiment: Antibacterial activity against methicillin-resistant Staphylococcus aureus HK5996/08 after 24 hrs by broth microdilution method; assay type: functional; conditions: HK5996/08, 24 h

## CCCCCCCCCCCCn1nnc(-c2cc([N+](=O)[O-])cc([N+](=O)[O-])c2)n1
[1]
  MIC: > 250 µM
[2]
  MIC: > 250 µM
[3]
  MIC: > 250 µM
[4]
  MIC: > 250 µM
[5]
  IC50: > 200 µM
[6]
  MIC99: 4 µM (≈ 1.62 µg/mL)
[7]
  MIC: > 250 µM
[8]
  MIC: > 250 µM
[9]
  MIC99: 8 µM (≈ 3.24 µg/mL)
[10]
  MIC: > 250 µM
[11]
  MIC: > 250 µM
[12]
  MIC: > 250 µM
[13]
  MIC: > 250 µM
[14]
  MIC: > 250 µM
[15]
  MIC99: 1 µM (≈ 0.404 µg/mL)
[16]
  MIC: > 250 µM
[17]
  MIC: > 250 µM
[18]
  MIC99: 2 µM (≈ 0.809 µg/mL)
[19]
  MIC99: 16 µM (≈ 6.47 µg/mL)
[20]
  MIC: > 250 µM
[21]
  MIC: > 250 µM
[22]
  MIC99: 2 µM (≈ 0.809 µg/mL)
[23]
  MIC: > 250 µM
[24]
  MIC: > 250 µM
[25]
  MIC: > 250 µM
[26]
  MIC: > 250 µM
[27]
  MIC: > 250 µM
[28]
  MIC99: 4 µM (≈ 1.62 µg/mL)
[29]
  MIC: > 250 µM
[30]
  MIC: > 250 µM
[31]
  MIC99: 8 µM (≈ 3.24 µg/mL)
[32]
  MIC: > 250 µM
[33]
  MIC: > 250 µM
[34]
  MIC99: 8 µM (≈ 3.24 µg/mL)
[35]
  MIC: > 250 µM
[36]
  MIC: > 250 µM
[37]
  MIC99: 4 µM (≈ 1.62 µg/mL)
[38]
  MIC: > 250 µM
[39]
  MIC: > 250 µM
[40]
  MIC: > 250 µM
[41]
  MIC: > 250 µM
[42]
  MIC: > 250 µM
[43]
  MIC: > 250 µM

## O=[N+]([O-])c1cc(-c2nnn(CSc3nnnn3-c3ccc(Cl)cc3)n2)cc([N+](=O)[O-])c1
[1]
  MIC: > 125 µM
[2]
  MIC: > 125 µM
[3]
  MIC: > 125 µM
[4]
  MIC: > 125 µM
[5]
  IC50: 14 µM
[6]
  MIC99: 0.5 µM (≈ 0.23 µg/mL)
[7]
  MIC: > 125 µM
[8]
  MIC: > 125 µM
[9]
  MIC99: 2 µM (≈ 0.922 µg/mL)
[10]
  MIC: > 125 µM
[11]
  MIC: > 125 µM
[12]
  MIC: > 125 µM
[13]
  MIC: 125 µM (≈ 57.6 µg/mL)
[14]
  MIC: > 125 µM
[15]
  MIC99: 0.03 µM (≈ 0.0138 µg/mL)
[16]
  MIC: > 125 µM
[17]
  MIC: > 125 µM
[18]
  MIC99: 0.25 µM (≈ 0.115 µg/mL)
[19]
  MIC99: 4 µM (≈ 1.84 µg/mL)
[20]
  MIC: > 125 µM
[21]
  MIC: > 125 µM
[22]
  MIC99: 0.03 µM (≈ 0.0138 µg/mL)
[23]
  MIC: > 125 µM
[24]
  MIC: > 125 µM
[25]
  MIC: > 125 µM
[26]
  MIC: > 125 µM
[27]
  MIC: > 125 µM
[28]
  MIC99: 0.5 µM (≈ 0.23 µg/mL)
[29]
  MIC: > 125 µM
[30]
  MIC: > 125 µM
[31]
  MIC99: 1 µM (≈ 0.461 µg/mL)
[32]
  MIC: > 125 µM
[33]
  MIC: > 125 µM
[34]
  MIC99: 2 µM (≈ 0.922 µg/mL)
[35]
  MIC: > 125 µM
[36]
  MIC: > 125 µM
[37]
  MIC99: 0.5 µM (≈ 0.23 µg/mL)
[38]
  MIC: > 125 µM
[39]
  MIC: 125 µM (≈ 57.6 µg/mL)
[40]
  MIC: > 125 µM
[41]
  MIC: > 125 µM
[42]
  MIC: > 125 µM
[43]
  MIC: > 125 µM
